Tests used:
[1] = test system: HCMV; assay: Anti-HCMV cytopathogenicity test; assay type: cell-based, human cytomegalovirus; settings: for EC50: Human betaherpesvirus 5, 144 h, inhibition of CPE by 50% in HCMV-infected HELF cells, M.O.I. 0.001–0.002, 6 days; for SI HCMV: selectivity index = CC50 (HELF)/EC50 (HCMV)
Method: (§1) Anti-HCMV (Anti-Human Cytomegalovirus) and anti-MCMV (Anti-Murine Cytomegalovirus) cytopathogenicity tests: The test compounds were employed as 50 millimolar (mM) solutions in dimethyl sulphoxide (DMSO). Ganciclovir, foscarnet and cidofovir served as reference compounds. Following the addition of in each case 2 μl of the 50, 5, 0.5 and 0.05 mM DMSO stock solutions to in each case 98μ of cell culture medium in row […], in duplicate determinations, 1:2 dilutions with in each case 50 μl of medium were prepared up to row 11 of the 96-well plate. The wells in rows 1 and 12 each contained 50 μl of medium. 150 μl of a suspension of 1×10^4 cells (human lung fibroblasts [HELF]) (row 1=cell control) or, in rows 2-12, a mixture of HCMV-infected and non-infected HELF cells (M.O.I.=0.001-0.002), i.e. 1-2 infected cells per 1000 non-infected cells, were then pipetted into each of the wells. Row 12 (without substance) served as virus control. The final test concentrations were 250-0.0005 μM. The plates were incubated at 37° C./5% CO2 for 6 days, i.e. until all cells in the virus controls had been infected (100% cytopathogenic effect [CPE]). The wells were then fixed and stained by adding a mixture of Formalin and Giemsa Stain (30 minutes), washed with doubly distilled water and dried in a drying cabinet at 50° C. The plates were then evaluated visually using an overhead microscope (plaque multiplier from Technomara). From the test plates, the following data were determined: EC50 (HCMV)=substance concentration in μM which inhibits the CPE (cytopathic effect) by 50% compared to the untreated virus control; SI (selectivity index)=CC50 (HELF)/EC50 (HCMV).

[2] = test system: human lung fibroblasts [HELF]; assay: Cytotoxicity on HELF cells in the anti-HCMV cytopathogenicity test; assay type: cell-based; settings: 6 days incubation, visual evaluation
Method: as §1, with “The” for “Anti-HCMV (Anti-Human Cytomegalovirus) and anti-MCMV (Anti-Murine Cytomegalovirus) cytopathogenicity tests: The”, “CC50 (HELF)=substance” for “EC50 (HCMV)=substance”, “at which,” for “which inhibits the CPE (cytopathic effect) by 50%”, “cell control, no visible cytostatic effects on the cells were noticeable;” for “virus control; SI (selectivity index)=CC50 (HELF)/EC50 (HCMV).”

[3] = test system: MCMV; assay: Anti-MCMV cytopathogenicity test; assay type: cell-based, murine cytomegalovirus; settings: for EC50: Murid betaherpesvirus 1, 120 h, MCMV-infected 3T3 mouse cells, M.O.I. 0.05–0.1, 5 days; for SI MCMV: selectivity index, 3T3 CC50 / MCMV EC50
Method: Anti-HCMV (Anti-Human Cytomegalovirus) and anti-MCMV (Anti-Murine Cytomegalovirus) cytopathogenicity tests:
(§2) The test compounds were employed as 50 millimolar (mM) solutions in dimethyl sulphoxide (DMSO). Ganciclovir, foscarnet and cidofovir served as reference compounds. Following the addition of in each case 2 μl of the 50, 5, 0.5 and 0.05 mM DMSO stock solutions to in each case 98μ of cell culture medium in row 2 A-H, in duplicate determinations, 1:2 dilutions with in each case 50 μl of medium were prepared up to row 11 of the 96-well plate. The wells in rows 1 and 12 each contained 50 μl of medium. 150 μl of a suspension of 1×10^4 cells (human lung fibroblasts [HELF]) (row 1=cell control) or, in rows 2–12, a mixture of HCMV-infected and non-infected HELF cells (M.O.I.=0.001–0.002), i.e. 1–2 infected cells per 1000 non-infected cells, were then pipetted into each of the wells. Row 12 (without substance) served as virus control. The final test concentrations were 250–0.0005 μM. The plates were incubated at 37° C./5% CO2 for 6 days, i.e. until all cells in the virus controls had been infected (100% cytopathogenic effect [CPE]). The wells were then fixed and stained by adding a mixture of Formalin and Giemsa Stain (30 minutes), washed with doubly distilled water and dried in a drying cabinet at 50° C. The plates were then evaluated visually using an overhead microscope (plaque multiplier from Technomara).
(§3) Compared to the process described above for HCMV, the anti-MCMV test was carried out with the following changes: a cell-free virus suspension was mixed with a concentrated cell suspension (3T3 mouse cells) and incubated for 15 minutes for adsorption of the viruses, and the suspension was then diluted with medium to 1.3×10^5 cells/ml with a final multiplicity of infection (M.O.I.) of from 0.05–0.1, and in each case 150 μl were dispensed into the wells. The incubation time was 5 days.

[4] = test system: 3T3 mouse cells; assay: Cytotoxicity on 3T3 cells in the anti-MCMV cytopathogenicity test; assay type: cell-based; settings: 5 days incubation
Method: as §2
(§4) CC50 (HELF)=substance concentration in μM at which, compared to the untreated cell control, no visible cytostatic effects on the cells were noticeable;
as §3

[5] = Cytotoxicity on HELF cells in the anti-HCMV cytopathogenicity test; assay type: cell-based; settings: human lung fibroblasts (HELF cells), 6 days incubation, visual evaluation
Method: as §1, with “The” for “Anti-HCMV (Anti-Human Cytomegalovirus) and anti-MCMV (Anti-Murine Cytomegalovirus) cytopathogenicity tests: The”, “CC50 (HELF)=substance” for “EC50 (HCMV)=substance”, “at which,” for “which inhibits the CPE (cytopathic effect) by 50%”, “cell control, no visible cytostatic effects on the cells were noticeable;” for “virus control; SI (selectivity index)=CC50 (HELF)/EC50 (HCMV).”

[6] = Cytotoxicity on 3T3 cells in the anti-MCMV cytopathogenicity test; assay type: cell-based; settings: mouse, 3T3 mouse cells, 5 days incubation
Method: as §2, §4, §3

SMILES	EC50 [1] [nM]	SI HCMV [1]	CC50 [2] [µM]	EC50 [3] [nM]	SI MCMV [3]	CC50 [4] [µM]	CC50 at 6 days [5] [µM]	CC50 at 5 days [6] [µM]	melting point [°C]
Cc1cc(-c2nc(-c3ccc(S(=O)(=O)Nc4cccc(NC(=O)C5(C)CC5)c4)cc3)no2)n[nH]1 [Example 9, 1-Methyl-N-{3-[({4-[5-(5-methyl-1H-pyrazol-3-yl)-1,2,4-oxadiazol-3-yl]phenyl}-sulphonyl)amino]phenyl}cyclopropanecarboxamide]	18	2167	39	68	59	4	–	–	–
CC(C)(CF)C(=O)Nc1cccc(NS(=O)(=O)c2ccc(-c3noc(-c4ccccn4)n3)cc2)c1 [Example 1, 3-Fluoro-2,2-dimethyl-N-{3-[({4-[5-(2-pyridinyl)-1,2,4-oxadiazol-3-yl]phenyl}-sulphonyl)amino]phenyl}propanamide]	55	2000	–	19	1737	–	110	33	178.9
CC1(C(=O)Nc2cccc(NS(=O)(=O)c3ccc(-c4noc(-c5ccccn5)n4)cc3)c2)CC1 [Example 3, 1-Methyl-N-{3-[({4-[5-(2-pyridinyl)-1,2,4-oxadiazol-3-yl]phenyl}sulphonyl)-amino]phenyl}cyclopropanecarboxamide]	18	<7778	–	8	2875	–	< 140	23	202
CC1(C(=O)Nc2cccc(NS(=O)(=O)c3ccc(-c4noc(-c5csc(CN)n5)n4)cc3)c2)CC1 [Example 12, N-(3-{[(4-{5-[2-(Aminomethyl)-1,3-thiazol-4-yl]-1,2,4-oxadiazol-3-yl}phenyl)-sulphonyl]amino}phenyl)-1-methylcyclopropanecarboxamide]	58	241	–	58	121	–	14	7	–

— patent US7115612B2, “Arylsulfonamides as antiviral agents” (Bayer Aktiengesellschaft, priority 2001, dated 2006)
